In PubChem BioAssay (NCI):
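Five concentrations, 48 hours, 96-well plates. GI50 = concentration required for 50% inhibition of growth. TGI: total growth inhibition.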

Assays:
Experiment in all cases: inhibition of tumour cell growth, NCI panel, 48 h
DLD-1 colon = tested on: DLD-1 colon
LXFL 529 NSCLC = tested on: LXFL 529 NSCLC
XF 498 CNS = tested on: XF 498 CNS
DU-145 prostate = tested on: DU-145 prostate
MCF7 breast = tested on: MCF7 breast
MDA-MB-231 breast = tested on: MDA-MB-231 breast
NCI/ADR-RES ovarian = tested on: NCI/ADR-RES ovarian
PC-3 prostate = tested on: PC-3 prostate
DMS 273 small cell lung = tested on: DMS 273 small cell lung
HOP-18 NSCLC = tested on: HOP-18 NSCLC

Row | Compound | TGI (DLD-1 colon) [µM] | TGI (LXFL 529 NSCLC) [µM] | TGI (XF 498 CNS) [µM] | GI50 (DU-145 prostate) [µM] | TGI (DU-145 prostate) [µM] | GI50 (MCF7 breast) [µM] | TGI (MCF7 breast) [µM] | GI50 (MDA-MB-231 breast) [µM] | TGI (MDA-MB-231 breast) [µM] | GI50 (NCI/ADR-RES ovarian) [µM] | TGI (NCI/ADR-RES ovarian) [µM] | GI50 (PC-3 prostate) [µM] | TGI (PC-3 prostate) [µM] | TGI (DMS 273 small cell lung) [µM] | TGI (HOP-18 NSCLC) [µM]
1 | CCCCN(CCCC)C(=O)/C(CC(=O)c1cccc2ccccc12)=N\NC(=O)c1cc2ccccc2cc1O | > 100 | > 100 | 88.1 |  |  |  |  |  |  |  |  |  |  |  | 
2 | O=c1c(F)cn(Cc2ccccc2CCl)c(=O)n1Cc1ccccc1CCl |  |  |  | 1.79 | 3.42 | 1.16 | 6.11 | 1.93 | 4.92 | 2.97 | 11.8 | 2.54 | 8.83 |  | 
3 | COc1cc(NCCCCCCCNC(C)C)c2nccc(C)c2c1 |  |  |  | 17 | 31.4 | 2.68 | 10.8 | 9.45 | 22.4 | 14.3 | 28.4 | 10.5 | 23.9 |  | 
4 | COC(=O)C1(O)CC(=O)CCC1c1ccc(OC)cc1 (stereo unspecified) | > 100 |  |  |  |  |  |  |  |  |  |  |  |  | > 100 | > 100
5 | CCN(C(=O)/C=C/c1ccco1)c1ccccc1 |  |  |  |  | > 100 |  | > 100 |  | > 100 |  | > 100 |  | > 100 |  | 
6 | CC(=O)OC(Cn1cncn1)(Cn1cncn1)c1ccc(Cl)cc1Cl |  |  |  |  | > 100 |  | > 100 |  | > 100 |  | > 100 |  | > 100 |  | 
7 | Cc1ccc(NC(=O)c2cc(S(=O)(=O)N3C(=O)NC(=O)NS3(=O)=O)c(S)cc2Cl)cc1 |  |  |  | 23.2 | 64 | 28 | > 100 | 20.4 | 57.9 | > 100 | > 100 | 32.3 | > 100 |  | 
8 | c1ccc2[nH]c(-c3ccc(Nc4nc(N5CCCCC5)nc(N5CCOCC5)n4)cc3)nc2c1 |  |  |  | 4.28 | > 100 | 2.4 | 7.9 | 2.5 | 7.52 | 4.69 | 55.2 | 3.05 | 9.13 |  | 
9 | CC(C)(C)OC(=O)NCCCCCCCn1c2c(c3ccccc3c1=O)C(=O)c1ccccc1-2 |  |  |  | 31.8 | > 100 | 55.4 | > 100 | 29.5 | > 100 | 26.1 | > 100 | 25.4 | > 100 |  | 
10 | CC(NC(=O)N(C)C)NC(=O)N(C)C |  |  |  |  | > 10 |  | > 10 |  | > 10 |  | > 10 |  | > 10 |  | 
11 | CCOC(=O)/C(C#N)=C\C=C(/Cl)c1ccc(Cl)cc1 |  |  |  | 12.9 | 25.5 | 25.6 | > 78.7 | 22.1 | 45.9 | 22 | 44.6 | 15 | 33.5 |  | 
12 | O=C1OCC2=C1C(c1ccccc1)c1cc3c(cc1N2CCO)OCO3 (stereo unspecified) |  |  |  | 10.6 | > 50 | 1.76 | > 50 | 24.8 | > 50 | 2.08 | 17.8 | 4.66 | > 50 |  | 
13 | COc1ccc(C(=O)c2ccc([As]=O)cc2)cc1 (stereo unspecified) |  |  |  | 0.0735 | 0.198 | 0.0212 | 0.136 | 0.087 | 0.242 |  |  | 0.056 | 0.185 |  | 
14 | COC(=O)C1(C(=O)OC)CC(=O)c2cc3c(cc2-c2c(cc(OC)c(OC)c2OC)C1)OCO3 | > 211 | > 211 |  |  |  |  |  |  |  |  |  |  |  | > 211 | > 211
15 | CC(=O)/C(=C/c1ccccc1F)C(=O)c1ccccc1 |  |  |  |  | > 100 |  | > 100 |  | 92.5 |  | > 100 |  | > 100 |  | 
16 | O=C(/C=C/c1ccccc1)CC(=O)CCC(=O)Nc1ccc(Cl)cc1 | > 100 | > 100 |  |  |  |  |  |  |  |  |  |  |  | > 100 | > 100
17 | C=C1C(=O)O[C@H]2[C@H]1CC/C(C=Nc1c(N)cc(C(F)(F)F)cc1Br)=C\CC[C@@]1(C)O[C@@H]21 |  |  |  | 1.48 | 2.95 | 0.982 | 4.48 | 1.33 | 3.15 | 2.31 |  | 1.5 | 3.85 |  | 
18 | CNC(=O)c1nn(C)c2c1C(C)(C)Cc1cnc(Nc3ccc(N4CCN(C)CC4)cc3)nc1-2 |  |  |  | 0.995 | > 10 | 0.238 | > 10 | 0.523 | > 10 | 3 | > 10 | 0.368 | > 10 |  | 
19 | CC(=O)O[C@H]1CCc2c(cc(N)c3c2C(=O)C[C@]2(C)C([C@H](C)CCCC(C)C)CCC32C)C1(C)C (stereo partly specified) |  |  |  |  | > 100 |  | > 100 |  | > 100 |  | > 100 |  | > 100 |  | 
20 | N#Cc1ccc(NC(=O)C(CC(=O)OCc2ccccc2)NC(=O)OCc2ccccc2)cc1 (stereo unspecified) |  |  |  |  | > 100 | > 100 | > 100 | > 100 | > 100 | > 100 | > 100 | > 100 | > 100 |  | 
21 | CC(=O)OCC1OC(N2C(=O)C(=O)c3ccccc32)C(OC(C)=O)C(OC(C)=O)C1OC(C)=O (stereo unspecified) | > 100 | > 100 |  |  |  |  |  |  |  |  |  |  |  | > 100 | 
22 | CCNC(=O)COc1ccc(Cl)cc1Cl | > 100 | > 100 |  |  |  |  |  |  |  |  |  |  |  | > 100 | > 100
23 | CC(C)CCC1(CCN)C(=O)NC(=O)NC1=O |  |  |  |  | > 100 |  | > 100 |  | > 100 |  | > 100 |  | > 100 |  | 
24 | CN(C)CCNC(=O)Cn1ccc(=O)c2c([N+](=O)[O-])cccc21 |  |  |  |  | > 100 |  | > 100 |  | > 100 |  |  |  | > 100 |  | 
25 | CN(C)C(=O)O[C@H]1CN[C@H](C#Cc2cc3ncnc(Nc4ccc(OCc5cccc(F)c5)c(Cl)c4)c3s2)C1 |  |  |  | 9.76 | > 25 | 14.6 | > 25 | 4.14 | 11.6 | 9.82 | > 25 | 5.44 | > 25 |  | 
26 | COCCOCCOC1=CC(=O)c2c(O)ccc(O)c2C1=O |  |  |  |  | 2.82 |  | 2.88 |  | 2.83 |  | 4.85 |  | 6.73 |  | 
27 | O=C(O)c1ccccc1/C=N/N=C1c2ccccc2-c2ccccc21 |  |  |  |  | > 100 |  | > 100 |  | > 100 |  | > 100 |  | 83.4 |  | 
